Laboratory results from paper PMC9516332 (Frontiers in Oncology, 2022).
Like-named read-outs stand apart in the source and are kept apart here.

Columns and labels:
Experiment in all cases: Kinase panel profiling at 1 µmol/L (MSA or IMAP), percentage inhibition
Format in all cases: biochemical
[1] = molecular target: T1, panel of 255 wild-type kinases (Homo sapiens, UniProt P30530); details: AXL kinase assay; 1 µmol/L single concentration; read-out: %-inhibition AXL
T1 sequence (P30530 26-894): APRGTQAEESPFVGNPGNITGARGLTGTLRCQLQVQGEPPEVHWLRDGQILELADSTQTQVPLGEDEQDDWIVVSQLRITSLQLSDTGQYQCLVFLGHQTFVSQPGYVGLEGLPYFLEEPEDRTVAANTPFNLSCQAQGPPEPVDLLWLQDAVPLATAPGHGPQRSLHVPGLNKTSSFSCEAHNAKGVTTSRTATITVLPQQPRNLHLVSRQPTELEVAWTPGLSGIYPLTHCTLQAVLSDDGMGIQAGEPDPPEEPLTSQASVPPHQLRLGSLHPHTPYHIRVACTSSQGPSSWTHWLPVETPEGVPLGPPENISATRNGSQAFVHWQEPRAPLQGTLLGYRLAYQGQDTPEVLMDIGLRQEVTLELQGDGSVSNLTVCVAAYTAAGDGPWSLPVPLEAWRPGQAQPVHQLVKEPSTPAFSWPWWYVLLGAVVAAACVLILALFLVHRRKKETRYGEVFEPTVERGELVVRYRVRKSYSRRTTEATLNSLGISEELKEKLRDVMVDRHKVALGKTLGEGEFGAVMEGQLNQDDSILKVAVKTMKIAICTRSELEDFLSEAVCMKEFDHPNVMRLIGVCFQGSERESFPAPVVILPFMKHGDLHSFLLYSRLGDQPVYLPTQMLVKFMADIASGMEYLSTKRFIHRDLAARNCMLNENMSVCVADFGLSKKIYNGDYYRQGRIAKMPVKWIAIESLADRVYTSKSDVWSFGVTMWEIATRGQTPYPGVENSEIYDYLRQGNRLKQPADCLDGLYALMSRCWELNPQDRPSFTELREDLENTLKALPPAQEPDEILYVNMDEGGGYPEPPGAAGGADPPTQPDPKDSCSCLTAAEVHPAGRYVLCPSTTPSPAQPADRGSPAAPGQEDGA

[2] = molecular target: panel of 255 wild-type kinases (Homo sapiens, UniProt P49674); details: kinase CK1ε; 1 µmol/L single concentration; read-out: %-inhibition at 1 µmol/L, CK1ε
[3] = molecular target: panel of 255 wild-type kinases (Homo sapiens, UniProt Q96GD4); details: AurB kinase assay; 1 µmol/L single concentration; read-out: %-inhibition AurB
[4] = molecular target: panel of 255 wild-type kinases (Homo sapiens, UniProt O75116); details: kinase ROCK2; 1 µmol/L single concentration; read-out: %-inhibition at 1 µmol/L, ROCK2
[5] = molecular target: T2, panel of 255 wild-type kinases (Homo sapiens, UniProt Q8IW41); details: MAPKAPK5; 1 µmol/L single concentration; read-out: %-inhibition, MAPKAPK5
T2 sequence (Q8IW41 1-473): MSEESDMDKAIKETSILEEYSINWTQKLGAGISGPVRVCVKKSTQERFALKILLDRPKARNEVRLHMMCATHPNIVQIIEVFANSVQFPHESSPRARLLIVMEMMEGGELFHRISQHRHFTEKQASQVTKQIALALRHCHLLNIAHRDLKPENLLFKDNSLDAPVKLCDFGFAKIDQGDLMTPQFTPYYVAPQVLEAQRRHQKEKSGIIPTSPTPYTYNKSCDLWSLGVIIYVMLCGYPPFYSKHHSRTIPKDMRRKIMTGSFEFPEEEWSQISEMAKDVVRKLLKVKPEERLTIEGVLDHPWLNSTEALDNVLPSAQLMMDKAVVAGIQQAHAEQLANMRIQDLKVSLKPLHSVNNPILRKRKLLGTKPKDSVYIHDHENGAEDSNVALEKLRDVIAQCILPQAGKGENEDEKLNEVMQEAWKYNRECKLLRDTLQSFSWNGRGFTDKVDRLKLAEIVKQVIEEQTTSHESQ

[6] = molecular target: T3, panel of 255 wild-type kinases (Homo sapiens, UniProt O14920); details: kinase IKKβ; 1 µmol/L single concentration; read-out: %-inhibition at 1 µmol/L, IKKβ
T3 sequence (O14920 1-756): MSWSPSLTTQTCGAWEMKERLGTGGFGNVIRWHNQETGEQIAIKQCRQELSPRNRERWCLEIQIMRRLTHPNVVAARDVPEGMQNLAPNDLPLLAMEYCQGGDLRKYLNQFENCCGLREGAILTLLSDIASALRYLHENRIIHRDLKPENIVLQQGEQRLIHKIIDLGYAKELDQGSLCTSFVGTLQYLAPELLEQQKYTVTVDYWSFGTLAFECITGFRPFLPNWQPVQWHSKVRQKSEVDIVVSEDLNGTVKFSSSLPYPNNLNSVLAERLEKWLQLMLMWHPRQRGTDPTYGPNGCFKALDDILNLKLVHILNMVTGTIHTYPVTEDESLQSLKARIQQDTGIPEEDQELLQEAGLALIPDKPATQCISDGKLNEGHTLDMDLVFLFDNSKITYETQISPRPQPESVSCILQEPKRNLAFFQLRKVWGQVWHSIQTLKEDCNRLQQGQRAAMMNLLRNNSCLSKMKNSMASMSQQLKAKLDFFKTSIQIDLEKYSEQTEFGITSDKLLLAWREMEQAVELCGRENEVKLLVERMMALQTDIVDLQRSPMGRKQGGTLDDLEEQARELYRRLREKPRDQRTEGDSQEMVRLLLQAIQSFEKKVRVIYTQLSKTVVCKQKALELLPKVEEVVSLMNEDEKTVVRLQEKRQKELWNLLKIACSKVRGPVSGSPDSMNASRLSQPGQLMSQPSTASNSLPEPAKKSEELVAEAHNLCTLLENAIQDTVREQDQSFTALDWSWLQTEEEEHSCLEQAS

[7] = molecular target: panel of 255 wild-type kinases (Homo sapiens, UniProt Q8N4C8); details: MINK; 1 µmol/L single concentration; read-out: %-inhibition, MINK
[8] = molecular target: panel of 255 wild-type kinases (Homo sapiens, UniProt P23458); details: kinase JAK1; 1 µmol/L single concentration; read-out: %-inhibition at 1 µmol/L, JAK1
[9] = system: panel of 255 wild-type kinases
[10] = molecular target: panel of 255 wild-type kinases (Homo sapiens, UniProt P41240); details: kinase CSK; 1 µmol/L single concentration; read-out: %-inhibition at 1 µmol/L, CSK
[11] = kinase FYN [isoform b], 1 µmol/L single concentration
[12] = kinase LYNb, 1 µmol/L single concentration
[13] = kinase PKCβ2, 1 µmol/L single concentration
[14] = kinase SRM, 1 µmol/L single concentration

| Compound | inhibition at 1 µM [1] | inhibition at 1 µM [2] | inhibition at 1 µM [3] | inhibition at 1 µM [4] | inhibition at 1 µM [5] | inhibition at 1 µM [6] | inhibition at 1 µM [7] | inhibition at 1 µM [8] | inhibition at 1 µM [10] | %-inhibition at 1 µmol/L, FYN [isoform b] [9, 11] | %-inhibition at 1 µmol/L, LYNb [9, 12] | %-inhibition at 1 µmol/L, PKCβ2 [9, 13] | %-inhibition at 1 µmol/L, SRM [9, 14] | number of the 255 profiled kinases inhibited by more than 50% ([9]; 1 µmol/L inhibitor) | %-inhibition at 1 µmol/L, FYN [isoform b] [9] | %-inhibition at 1 µmol/L, LYNb [9] | %-inhibition at 1 µmol/L, PKCβ2 [9] | %-inhibition at 1 µmol/L, SRM [9] | number of the 255 profiled kinases inhibited by more than 50% [9] |
| --- | --- | --- | --- | --- | --- | --- | --- | --- | --- | --- | --- | --- | --- | --- | --- | --- | --- | --- | --- |
| CN1CCN(c2ccc(C(=O)Nc3n[nH]c4ccc(Cc5cc(F)cc(F)c5)cc34)c(NC3CCOCC3)c2)CC1 [entrectinib] | 96% | 10% | 48% | 7% | 0.65% | -0.451% | 1.64% | 91% | 8% | – | – | – | – | – | 95% | 72% | 14% | 72% | 75 |
| COc1ccc(CN2C3CC2CN(c2ccc(-c4cc(OCC(C)(C)O)cn5ncc(C#N)c45)cn2)C3)cn1 [selpercatinib] | 93% | 2.36% | 79% | -0.275% | -1.78% | -2.15% | -5.33% | 6% | 1.77% | 10% | 52% | -1.06% | -1.55% | 46 | – | – | – | – | – |
| Cc1nc(NC(=O)N2CCC[C@H]2C(N)=O)sc1-c1ccnc(C(C)(C)C(F)(F)F)c1 [alpelisib] | -3.59% | -2.48% | -4.26% | 0.528% | -2.15% | 0.111% | -2% | -8% | -0.289% | -5.63% | 4.67% | 2.32% | 1% | – | – | – | – | – | – |
| C[C@H]1Oc2cc(cnc2N)-c2c(nn(C)c2C#N)CN(C)C(=O)c2ccc(F)cc21 [lorlatinib] | 8% | 0.583% | 5% | 3.28% | 2.32% | -0.377% | -0.198% | -0.817% | 1.12% | 4% | 22% | 4% | 59% | – | – | – | – | – | – |
| CCN1C(=O)N(c2c(F)c(OC)cc(OC)c2F)Cc2cnc3[nH]c(CN4CCOCC4)cc3c21 [pemigatinib] | 4.45% | 1.32% | 2.32% | -5% | 2.28% | -1.22% | -4.31% | -2.65% | 2.28% | 14% | 64% | -1.57% | -3.44% | – | – | – | – | – | – |
| CO[C@]1(C(=O)N[C@@H](C)c2ccc(-n3cc(F)cn3)nc2)CC[C@H](c2nc(C)cc(Nc3cc(C)[nH]n3)n2)CC1 [pralsetinib] | 92% | -3% | 38% | 1.29% | -3.49% | 32% | -3.43% | 101% | 0.35% | 30% | 89% | -1.78% | 13% | 71 | – | – | – | – | – |

The next lines start with results.

| inhibition at 1 µM [1] | inhibition at 1 µM [2] | inhibition at 1 µM [3] | inhibition at 1 µM [4] | inhibition at 1 µM [5] | inhibition at 1 µM [6] | inhibition at 1 µM [7] | inhibition at 1 µM [8] | inhibition at 1 µM [10] | %-inhibition at 1 µmol/L, FYN [isoform b] [9, 11] | %-inhibition at 1 µmol/L, LYNb [9, 12] | %-inhibition at 1 µmol/L, PKCβ2 [9, 13] | %-inhibition at 1 µmol/L, SRM [9, 14] | number of the 255 profiled kinases inhibited by more than 50% ([9]; 1 µmol/L inhibitor) | Compound | %-inhibition at 1 µmol/L, FYN [isoform b] [9] | %-inhibition at 1 µmol/L, LYNb [9] | %-inhibition at 1 µmol/L, PKCβ2 [9] | %-inhibition at 1 µmol/L, SRM [9] | number of the 255 profiled kinases inhibited by more than 50% [9] |
| --- | --- | --- | --- | --- | --- | --- | --- | --- | --- | --- | --- | --- | --- | --- | --- | --- | --- | --- | --- |
| -1.7% | -3.48% | -3.18% | -4% | -4.73% | -4% | -4.54% | 5% | -1.11% | 4% | 4.22% | -1.88% | -1.11% | – | Cn1cnc2c(F)c(Nc3ccc(Br)cc3F)c(C(=O)NOCCO)cc21 [binimetinib] | – | – | – | – | – |
| 22% | 0.505% | -0.568% | -1.34% | 2% | 1% | -4.35% | 2.72% | 6% | -1.06% | 6% | -1.5% | 2.77% | – | Cc1cc(Nc2ncnc3ccc(NC4=NC(C)(C)CO4)cc23)ccc1Oc1ccn2ncnc2c1 [tucatinib] | – | – | – | – | – |
| 26% | -0.361% | 12% | 2.83% | -3.2% | 1.34% | -4.5% | 2.46% | 0.0795% | -1.85% | 7% | -2% | -1.41% | – | Cn1cnc2c(F)c(Nc3ccc(Br)cc3Cl)c(C(=O)NOCCO)cc21 [selumetinib] | – | – | – | – | – |
| 40% | 6.55% | 2% | -4.35% | -4.47% | 6% | 7.37% | 0.444% | 18% | 37% | 74% | 5.44% | 1.79% | – | COc1cc2ncnc(Nc3ccc(F)c(Cl)c3)c2cc1NC(=O)/C=C/CN1CCCCC1 [dacomitinib] | – | – | – | – | – |
